Results as given in patent US7060451B2, “Methods for screening GABA-modulatory compounds for specified pharmacological activities” (Neurogen Corporation, priority 1999, dated 2006).
pKi: −log10 of the molar value.

How the values were obtained:
[1] = molecular target: α3β3γ2 GABAA subtype receptor (Homo sapiens, UniProt P18507+P34903); experiment: oocyte electrophysiology, two electrode voltage-clamp, potentiation of GABA current; assay type: cell-based; details: Xenopus oocytes, human subunits, GABA EC10
Chain of α3β3γ2 GABAA subtype receptor (P34903 29-492): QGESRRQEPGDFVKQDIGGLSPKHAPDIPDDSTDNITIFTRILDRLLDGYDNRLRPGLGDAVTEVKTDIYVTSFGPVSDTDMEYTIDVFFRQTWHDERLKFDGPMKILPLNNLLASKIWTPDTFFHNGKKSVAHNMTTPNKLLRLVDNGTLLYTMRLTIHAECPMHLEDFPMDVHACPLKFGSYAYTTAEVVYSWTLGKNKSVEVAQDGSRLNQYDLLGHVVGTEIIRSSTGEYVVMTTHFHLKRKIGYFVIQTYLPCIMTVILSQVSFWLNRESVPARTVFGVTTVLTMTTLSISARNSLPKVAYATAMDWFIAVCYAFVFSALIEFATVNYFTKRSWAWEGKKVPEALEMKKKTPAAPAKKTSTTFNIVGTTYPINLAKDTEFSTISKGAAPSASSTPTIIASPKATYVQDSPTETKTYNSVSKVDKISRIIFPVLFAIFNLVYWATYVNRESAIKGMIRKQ
Chain of α3β3γ2 GABAA subtype receptor (P28472 26-473 partner): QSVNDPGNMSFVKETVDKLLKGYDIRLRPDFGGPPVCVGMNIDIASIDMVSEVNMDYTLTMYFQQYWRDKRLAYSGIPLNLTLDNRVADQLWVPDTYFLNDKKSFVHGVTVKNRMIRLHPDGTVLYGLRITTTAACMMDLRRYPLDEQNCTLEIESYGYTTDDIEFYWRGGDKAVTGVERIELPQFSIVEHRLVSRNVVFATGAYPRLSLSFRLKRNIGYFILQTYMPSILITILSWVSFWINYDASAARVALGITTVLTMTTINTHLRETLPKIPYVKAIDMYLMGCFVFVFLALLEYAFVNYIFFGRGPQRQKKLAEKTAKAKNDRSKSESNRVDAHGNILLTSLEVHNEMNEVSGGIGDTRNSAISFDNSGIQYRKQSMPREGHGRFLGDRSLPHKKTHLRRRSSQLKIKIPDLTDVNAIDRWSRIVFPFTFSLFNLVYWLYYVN
Chain of α3β3γ2 GABAA subtype receptor (P18507 40-475): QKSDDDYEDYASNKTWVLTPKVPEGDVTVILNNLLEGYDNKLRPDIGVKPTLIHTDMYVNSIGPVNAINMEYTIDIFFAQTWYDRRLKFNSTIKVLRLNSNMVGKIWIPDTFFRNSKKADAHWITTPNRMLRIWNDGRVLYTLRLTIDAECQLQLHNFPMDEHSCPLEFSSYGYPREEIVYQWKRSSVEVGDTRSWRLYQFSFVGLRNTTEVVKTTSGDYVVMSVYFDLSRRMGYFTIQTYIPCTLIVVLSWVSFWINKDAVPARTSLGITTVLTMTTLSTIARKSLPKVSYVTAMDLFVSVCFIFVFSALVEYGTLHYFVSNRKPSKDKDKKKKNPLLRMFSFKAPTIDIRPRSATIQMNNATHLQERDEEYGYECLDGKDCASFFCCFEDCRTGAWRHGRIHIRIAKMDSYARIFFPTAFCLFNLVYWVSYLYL
Protocol: (§1) Assays are carried out as described previously in White and Gurley, 1995 and White, et al., 1995. Xenopus laevis oocytes are enzymatically isolated and injected with non-polyadenylated cRNA for human derived α, β and γ GABAA subunits, respectively. In more preferred embodiments cRNA for the α1β2γ2, α2β3γ2, α3β3γ2, and α5β3γ2 subunit combinations are injected. Only one of these subunit combinations is injected per cell. For each subunit combination, sufficient message is injected to result in current amplitudes of >10 nA when 1 μM GABA is applied. Electrophysiological recordings are carried out using the two electrode voltage-clamp technique at a membrane holding potential of −70 mV.
(§2) Compounds are evaluated against a GABA concentration that evokes <10% (EC10) of the maximal evocable GABA current. Each oocyte is exposed to increasing concentrations of compound in order to evaluate a concentration/effect relationship.
(§3) Specificity of a compound for the Ro15-1788 site is determined following completion of the concentration/effect curve. After washing the oocyte sufficiently to remove previously applied compound, the oocyte is exposed to GABA and 1 μM Ro15-1788, followed by exposure to GABA, 1 μM Ro15-1788, and compound. Percent change due to addition of compound is calculated as described above. Any percent change observed in the presence of Ro15-1788 is subtracted from the percent changes in current amplitude observed in the absence of 1 μM Ro15-1788. These net values are used for the calculation of average activity and EC50 values.
(§4) To evaluate average activity and EC50 values, the concentration/effect data are averaged across cells and fit to the logistic equation. Average values are reported as mean ±standard error.

[2] = molecular target: α2β3γ2 GABAA subtype receptor (Homo sapiens, UniProt P18507+P47869); experiment: as above; assay type: cell-based; details: Xenopus oocytes, human subunits, GABA EC10
Chain of α2β3γ2 GABAA subtype receptor (P47869 29-451): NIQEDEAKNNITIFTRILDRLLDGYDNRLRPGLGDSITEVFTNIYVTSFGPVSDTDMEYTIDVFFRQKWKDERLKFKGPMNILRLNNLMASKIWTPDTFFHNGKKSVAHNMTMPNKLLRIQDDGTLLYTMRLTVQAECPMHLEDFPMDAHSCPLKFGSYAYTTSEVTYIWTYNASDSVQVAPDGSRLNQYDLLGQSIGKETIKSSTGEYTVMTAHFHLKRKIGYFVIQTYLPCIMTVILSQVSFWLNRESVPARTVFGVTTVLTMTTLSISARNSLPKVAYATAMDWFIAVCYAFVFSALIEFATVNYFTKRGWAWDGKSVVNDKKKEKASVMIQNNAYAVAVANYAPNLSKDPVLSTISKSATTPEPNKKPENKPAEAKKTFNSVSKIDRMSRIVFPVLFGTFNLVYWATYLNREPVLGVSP
Chain of α2β3γ2 GABAA subtype receptor (P28472 26-473 partner): as the sequence (P28472 26-473 partner) above
Chain of α2β3γ2 GABAA subtype receptor (P18507 40-475): as the sequence (P18507 40-475) above
Protocol: as §1, §2, §3, §4

[3] = molecular target: α5β3γ2 GABAA subtype receptor (Homo sapiens, UniProt P18507+P31644); experiment: as above; assay type: cell-based; details: Xenopus oocytes, human subunits, GABA EC10; for Emax: read-out: oocyte electrophysiology maximum potentiation (%) α5β3γ2
Chain of α5β3γ2 GABAA subtype receptor (P31644 32-462): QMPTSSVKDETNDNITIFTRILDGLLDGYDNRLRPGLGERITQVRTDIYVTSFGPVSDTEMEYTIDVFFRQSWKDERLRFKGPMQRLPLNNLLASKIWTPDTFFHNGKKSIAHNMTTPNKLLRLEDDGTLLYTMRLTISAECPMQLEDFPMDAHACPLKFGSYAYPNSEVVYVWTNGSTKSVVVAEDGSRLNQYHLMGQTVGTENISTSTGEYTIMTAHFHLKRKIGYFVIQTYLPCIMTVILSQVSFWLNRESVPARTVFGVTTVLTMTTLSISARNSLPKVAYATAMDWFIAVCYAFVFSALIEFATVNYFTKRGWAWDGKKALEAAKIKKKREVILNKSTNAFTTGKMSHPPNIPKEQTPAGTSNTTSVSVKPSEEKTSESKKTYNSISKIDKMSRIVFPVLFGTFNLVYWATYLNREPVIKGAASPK
Chain of α5β3γ2 GABAA subtype receptor (P28472 26-473 partner): as the sequence (P28472 26-473 partner) above
Chain of α5β3γ2 GABAA subtype receptor (P18507 40-475): as the sequence (P18507 40-475) above
Protocol: as §1, §2, §3, §4

[4] = molecular target: α1β2γ2 GABAA subtype receptor (Homo sapiens, UniProt P14867+P18507); experiment: as above; assay type: cell-based; details: Xenopus oocytes, human subunits, GABA EC10; for Emax: read-out: oocyte electrophysiology maximum potentiation (%) α1β2γ2
Chain of α1β2γ2 GABAA subtype receptor (P14867 28-456): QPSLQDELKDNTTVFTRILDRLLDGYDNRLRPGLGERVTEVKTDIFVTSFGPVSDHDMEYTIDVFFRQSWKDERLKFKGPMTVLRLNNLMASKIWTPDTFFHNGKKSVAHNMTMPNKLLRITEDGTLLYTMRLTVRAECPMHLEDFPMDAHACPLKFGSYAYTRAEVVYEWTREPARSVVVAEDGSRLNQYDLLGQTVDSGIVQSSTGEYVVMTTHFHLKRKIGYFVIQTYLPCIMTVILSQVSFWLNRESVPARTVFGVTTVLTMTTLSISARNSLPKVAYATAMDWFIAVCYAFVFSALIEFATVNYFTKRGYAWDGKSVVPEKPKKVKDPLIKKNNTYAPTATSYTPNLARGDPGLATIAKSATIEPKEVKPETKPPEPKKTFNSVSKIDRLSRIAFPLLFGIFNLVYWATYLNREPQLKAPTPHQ
Chain of α1β2γ2 GABAA subtype receptor (P47870 25-512 partner limits assumed): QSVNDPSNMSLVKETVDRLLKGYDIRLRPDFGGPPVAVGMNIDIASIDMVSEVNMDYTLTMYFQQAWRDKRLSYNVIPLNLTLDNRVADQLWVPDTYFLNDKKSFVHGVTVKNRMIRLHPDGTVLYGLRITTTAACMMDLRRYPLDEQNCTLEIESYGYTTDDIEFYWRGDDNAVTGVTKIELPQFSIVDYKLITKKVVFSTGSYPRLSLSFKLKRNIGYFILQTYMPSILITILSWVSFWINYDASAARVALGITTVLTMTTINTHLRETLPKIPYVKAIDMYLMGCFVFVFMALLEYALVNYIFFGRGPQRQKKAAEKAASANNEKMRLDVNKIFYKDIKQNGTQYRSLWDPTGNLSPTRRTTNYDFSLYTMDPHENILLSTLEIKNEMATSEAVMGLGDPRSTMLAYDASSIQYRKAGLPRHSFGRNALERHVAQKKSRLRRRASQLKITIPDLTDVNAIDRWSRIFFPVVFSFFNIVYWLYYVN
Chain of α1β2γ2 GABAA subtype receptor (P18507 40-475): as the sequence (P18507 40-475) above
Protocol: as §1, §2, §3, §4

[5] = molecular target: GABAA receptors (benzodiazepine site, Ro15-1788 binding sites), rat cortex; experiment: Ro15-1788 competition binding assay, rat cortex membranes; details: displacement of 3H Ro15-1788, read-out: Ro15-1788 binding, K1
Protocol: Rat cortex membranes are prepared by homogenizing one or two previously frozen rat cortexes in 30 ml of 25 mM Tris Buffer, pH 7.4. The homogenate is centrifuged for 10 minutes at 500× g. The supernatant is then transferred to a clean centrifuge tube and the pellet discarded. The supernatant is spun for 20 minutes at 48,000× g. The supernatant from this spin is discarded and the pellet is resuspended in 30 ml of 25 mM Tris Buffer, pH 7.4 and centrifuged for an additional 10 minutes at 48,000× g. The supernatant from the final spin is discarded and the membrane pellet is resuspended in 100 mL Tris buffer per gram of cortex used.
The cortex membrane preparation is used to perform either percent inhibition or competition binding assays. In order to determine percent inhibition 300 μl of resuspended membranes are mixed with 200 μl ^3H labeled Ro15-1788 (final concentration 2.5 nM) and incubated for 1 hour on ice in the presence of 2 μl test compound in DMSO (final concentration 4 μM). Membranes are harvested onto untreated filtermats. The filtermats are dried and the ^3H Ro15-1788 signal is counted in a scintillation counter. Nonspecific binding is determined by displacement of ^3H Ro15-1788 with 10 μM Diazepam (RBI) or any other compound known to bind tightly at the benzodiazepine site.
K1 values are calculated according to the Cheng-Prussof equation.

rats [6] = experiment: step-down passive avoidance; assay type: in vivo; details: rat; for cognitive model (step-down passive avoidance), minimal efficacious dose: cognitive enhancement
Text: In step-down passive avoidance a rat is placed on a platform located in the center of an electrified grid floor that is contained within a large (45 cm×45 cm×50 cm) white translucent Plexiglas® enclosure. The natural inclination of the rat is to step off the platform and investigate its surroundings. […] Each time the animal steps off the platform it receives a mild foot shock of 2 mAmps×6 sec. Following each shock the animal is removed from the box, placed in its cage for a one minute inter-trial interval, and then returned to the platform. The latency to step down on each trial, the number of trials taken to reach criterion during training and the retention latency are collected.
Testing is conducted approximately 24 hrs. after training. Drug-free animals are placed on the platform in the box in which they will have been trained and the latency to step down onto the grid floor is recorded for one trial as a measure of memory retention.

rats [7] = experiment: spontaneous locomotor activity; assay type: in vivo; details: rat
Protocol: Spontaneous locomotor activity can be measured to determine sedative effects of compounds. Locomotor activity is measured in eight computerized Digiscan-16 Animal Activity Monitors (Omnitech Electronics, Columbus, Ohio) equipped with 48 infrared photocell emitters and detectors. Each box is constructed of Plexiglas sides and floor. Horizontal activity is detected by a set of horizontal sensors on the front to back walls and a second group of sensors on the side to side walls located 5 cm above the cage floor. Vertical activity is detected by a third set of sensors on the side to side walls located 13.5 cm above the cage floor. The rats are tested in the presence of white noise (62 dB) and red St light (60 watt).
Test compound is administered IV in a 50% PEG vehicle 5 minutes prior to the test session. A range of compound doses is typically used and 6 to 8 rats are tested at each dose. The animal's movement time, vertical activity, and total distance traveled are tracked over a 15 minute test session. A sedative, or hypnotic, effect in the spontaneous locomotor activity model is defined by a decrease in any two of these three measures relative to animals given vehicle alone.

rats [8] = experiment: elevated plus maze; assay type: in vivo; details: rat, IV, statistically significant response (anxiolytic effect)
Protocol: The elevated plus maze model capitalizes on rats' innate fear of open, elevated places. The test apparatus is an elevated plus maze consisting of two open arms and two closed arms. A rat will naturally chose to spend more time on the closed arms of the maze than on the open arms but that if an efficacious anxiolytic compound is administered to the rat prior to the test the amount it of time the rat spends in the open arms is increased.
Test compound is administered IV in a 50% PEG (polyethylene glycol) vehicle 5 minutes prior to the test session. A range of compound doses is typically used and 8-10 rats are tested at each dose. The rat is placed in the center of the maze facing one of the open arms. The animal's locomotion is tracked over a five minute test session using photocells interfaced to a computer. The computer measures the number of entries into each arm and the time spent on each arm. An anxiolytic effect in the elevated plus maze model is defined by an increase in the percentage of time spent on the open arms in compound versus vehicle treated animals.

[9] = IV, hypnotic effect (Table VII)

| Compound | oocyte electrophysiology maximum potentiation (%) α3β3γ2 [1] [%] | oocyte electrophysiology maximum potentiation (%) α2β3γ2 [2] [%] | Emax [3] [%] | oocyte electrophysiology maximum potentiation (%) α1β2γ2 [4] [%] | pKi [5] | cognitive model (step-down passive avoidance), minimal efficacious dose (rats [6]; IV) [mg/kg] | spontaneous locomotor activity, minimal efficacious dose (rats [7]; [9]) [mg/kg] | step-down passive avoidance, minimal efficacious dose (rats [6]; IV, cognitive impairment side effect (Table VII)) [mg/kg] | spontaneous locomotor activity, minimal efficacious dose (rats [7]; in vivo, iv, 15 min) [mg/kg] | elevated plus maze, minimal efficacious dose (rats [8]) [mg/kg] | spontaneous locomotor activity, minimal efficacious dose (rats [7]; IV, sedation as side effect (Tables V and IX)) [mg/kg] | oocyte electrophysiology maximum potentiation (%) α5β3γ2 [3] [%] | Emax [4] [%] | step-down passive avoidance, minimal efficacious dose (rats [6]; in vivo, iv, 24 h) [mg/kg] |
| --- | --- | --- | --- | --- | --- | --- | --- | --- | --- | --- | --- | --- | --- | --- |
| O=C(Nc1ccc(OCCO)cc1)c1c[nH]c2c1C(=O)CCC2 [compound 12] | 82 | 63 | -12 | 15 | 8.27 | 0.06 |  |  |  |  |  |  |  |  |
| O=c1[nH]c2c(n1-c1nc3ccc(F)c(F)c3o1)CCCCC2 [compound 7] | 83 | 51 | -23 | 18 | 8.52 |  | 0.125 |  |  |  |  |  |  |  |
| Cc1ccc(-c2nc3ccc(C)cn3c2CC(=O)N(C)C)cc1 [Zolpidem, reference compound] | 882 | 350 |  | 263 | 7.32 |  | 0.25 | 0.5 |  |  |  |  |  |  |
| O=c1c(-c2ccccc2F)nc2c[nH]c3ccccc3n1-2 [compound 2] | 39 | 40 | -11 | 18 | 8.00 |  |  |  | 4 | 0.5 |  |  |  |  |
| Cc1nnc2n1-c1ccc(Cl)cc1C(c1ccccc1)=NC2 [Alprazolam, reference compound] | 774 | 333 |  | 327 | 8.48 |  |  |  |  | 0.0625 | 0.125 | 206 |  |  |
| O=c1c2c[nH]c3ccccc3n-2c(=O)n1-c1ccc(F)cc1 [compound 10] | 23 | 22 | -27 |  | 8.00 | 0.25 |  |  |  |  |  |  | 0 |  |
| CC1CC(=O)c2c(C(=O)Nc3ccc(F)cc3)c[nH]c2C1 (stereo not shown) [compound 8] | 61 | 42 |  | 17 | 7.62 |  | 0.5 |  |  |  |  | 16 |  |  |
| c1cc2c(cc1-c1ncc3[nH]c4c(c3n1)CCCC4)OCO2 [compound 9] | 23 | 53 | < 10 | 33 | 8.11 |  | 0.5 |  |  |  |  |  |  | 0.5 |
| O=C(Nc1cccc(F)c1)c1c[nH]c2c(c1=O)CCC2 [compound 5] | 44 | 44 | 0 |  | 8.08 |  |  |  |  | 0.5 |  |  | 0 |  |
| COc1ccc(NC(=O)c2c[nH]c3c2C(=O)CC(C)(C)C3)c(F)c1 [compound 6] | 95 | 72 |  | 25 | 7.96 |  | 0.25 |  |  |  |  | 42 |  | 4 |
